# System: MSSA (SH1000)
# Assay: MIC against methicillin-susceptible S. aureus (MSSA)
# Type: cell-based
# Settings: Staphylococcus aureus; MSSA (SH1000); 72 hours, 37 °C; read-out: MIC
# Experimental: (§1) The term “minimum inhibitory concentration (MIC)” means the lowest concentration of an antimicrobial agent that will inhibit the visible growth of a microorganism after overnight incubation. MIC values against bacteria, for example, the Gram-positive Staphylococcus aureus and Enterococcus faecalis and the Gram-negative Escherichia coli and Pseudomonas aeruginosa were determined by standard methods. See also P. A. Wayne, Methods for Dilution Antimicrobial Tests for Bacteria that Grow Aerobically; Approved Standard, Ninth Edition, 2012, CLSI Document M07-A9, Vol. 32 No. 2.
# (§2) Biological testing procedures were adapted from prior work by Melander and coworkers. For all biological assays, laboratory strains of methicillin-susceptible Staphylococcus aureus MSSA (SH1000), Staphylococcus aureus CA-MRSA (USA300-0114), Staphylococcus aureus HA-MRSA (ATCC 33591), Escherichia coli (MC4100), Enterococcus faecalis (OG1RF), Acinetobacter baumannii (ATCC 17978), were grown with shaking at 37 °C overnight from freezer stocks in 5 mL of the indicated media: SH1000, OG1RF, MC4100, USA300-0114, and ATCC 17978 were grown in BDTM Mueller-Hinton broth (MHB), whereas ATCC 33591 was grown in BDTM tryptic soy broth (TSB). The inoculum were then streaked onto Mueller-Hinton agar (MHA) plates and grown overnight at 37 °C. From the plates, single colonies were selected, diluted into 50 mL of fresh media and grown overnight at 37 °C with shaking for use in the MIC assays. Optical density (OD) measurements were obtained using a SpectraMax iD3 plate reader (Molecular Devices, United States).
# (§3) Compounds were serially diluted two-fold from stock solutions (1.0 mM) to yield twelve 100 μL test concentrations, wherein the starting concentration of dimethyl sulfoxide (DMSO) was 2.5%. Overnight S. aureus, E. faecalis, E. coli, A. baumannii, USA300-0114 (CA-MRSA), and ATCC 33591 (HA-MRSA) cultures were diluted to ca. 10^6 CFU/mL in MHB or TSB and regrown to mid-exponential phase, as determined by optical density recorded at 600 nm (OD600). All cultures were then diluted again to ca. 10^6 CFU/mL and 100 μL were inoculated into each well of a U-bottom 96-well plate (Corning, 351177) containing 100 μL of compound solution. Plates were incubated statically at 37 °C for 72 hours upon which wells were evaluated visually for bacterial growth. The MIC was determined as the lowest concentration of compound resulting in no bacterial growth visible to the naked eye, based on the highest value in three independent experiments. Aqueous DMSO controls were conducted as appropriate for each compound.
# (§4) The prepared library of biscationic amphiphilic compounds was assessed for performance as antibacterial disinfectants by determining the minimum inhibitory concentration (MIC) for each against a panel of bacteria. The bacteria selected for the study were chosen to evaluate the broad spectrum antimicrobial performance of the QPCs, and therefore, included both Gram-positive and Gram-negative bacterial strains, including those with known antimicrobial resistance mechanisms. These bacteria include the Gram-positive strains of methicillin-susceptible Staphylococcus aureus [MSSA; SH1000], community-acquired methicillin-resistant Staphylococcus aureus [CA-MRSA; USA 300-0114], hospital-acquired methicillin-resistant Staphylococcus aureus [HA-MRSA; ATCC 33591] and the […], Escherichia coli [MC4100], Acinetobacter baumannii [ATCC 17498] and Pseudomonas aeruginosa [PAO1].
row,Structure (SMILES),MIC [µM]
1,"CCCCCCCCCCCCC[P+](CC[P+](CCCCCCCCCCCCC)(C1CCCCC1)C1CCCCC1)(C1CCCCC1)C1CCCCC1 [^CyP2P-13,13]",2
2,"CCCCCCCCCCCCCC[P+](CC[P+](CCCCCCCCCCCCCC)(C1CCCCC1)C1CCCCC1)(C1CCCCC1)C1CCCCC1 [^CyP2P-14,14]",4
3,"CCCCCCCCCCCCCCCC[P+](CC[P+](CCCCCCCCCCCCCCCC)(C1CCCCC1)C1CCCCC1)(C1CCCCC1)C1CCCCC1 [^CyP2P-16,16]",8
4,"CCCCCCCC[P+](CC)(CC)CC[P+](CC)(CC)CCCCCCCC [^EtP2P-8,8]",63
5,"CCCCCCCCCC[P+](CC)(CC)CC[P+](CC)(CC)CCCCCCCCCC [^EtP2P-10,10]",2

# System: CA-MRSA (USA300-0114)
# Assay: MIC against community-acquired methicillin-resistant S. aureus (CA-MRSA)
# Type: cell-based
# Settings: Staphylococcus aureus, 72 h
# Experimental: as §1, §2, §3, §4
row,Structure (SMILES),MIC [µM]
1,"CCCCCCCCCCCCC[P+](CC[P+](CCCCCCCCCCCCC)(C1CCCCC1)C1CCCCC1)(C1CCCCC1)C1CCCCC1 [^CyP2P-13,13]",2
2,"CCCCCCCCCCCCCC[P+](CC[P+](CCCCCCCCCCCCCC)(C1CCCCC1)C1CCCCC1)(C1CCCCC1)C1CCCCC1 [^CyP2P-14,14]",4
3,"CCCCCCCCCCCCCCCC[P+](CC[P+](CCCCCCCCCCCCCCCC)(C1CCCCC1)C1CCCCC1)(C1CCCCC1)C1CCCCC1 [^CyP2P-16,16]",2
4,"CCCCCCCC[P+](CC)(CC)CC[P+](CC)(CC)CCCCCCCC [^EtP2P-8,8]",125
5,"CCCCCCCCCC[P+](CC)(CC)CC[P+](CC)(CC)CCCCCCCCCC [^EtP2P-10,10]",1

# System: HA-MRSA (ATCC 33591)
# Assay: MIC against hospital-acquired methicillin-resistant S. aureus (HA-MRSA)
# Type: cell-based
# Settings: Staphylococcus aureus, 72 h
# Experimental: as §1, §2, §3, §4
row,Structure (SMILES),MIC [µM]
1,"CCCCCCCCCCCCC[P+](CC[P+](CCCCCCCCCCCCC)(C1CCCCC1)C1CCCCC1)(C1CCCCC1)C1CCCCC1 [^CyP2P-13,13]",1
2,"CCCCCCCCCCCCCC[P+](CC[P+](CCCCCCCCCCCCCC)(C1CCCCC1)C1CCCCC1)(C1CCCCC1)C1CCCCC1 [^CyP2P-14,14]",2
3,"CCCCCCCCCCCCCCCC[P+](CC[P+](CCCCCCCCCCCCCCCC)(C1CCCCC1)C1CCCCC1)(C1CCCCC1)C1CCCCC1 [^CyP2P-16,16]",2
4,"CCCCCCCC[P+](CC)(CC)CC[P+](CC)(CC)CCCCCCCC [^EtP2P-8,8]",250
5,"CCCCCCCCCC[P+](CC)(CC)CC[P+](CC)(CC)CCCCCCCCCC [^EtP2P-10,10]",8

# System: E. faecalis (OG1RF)
# Assay: MIC against E. faecalis
# Type: cell-based
# Settings: Enterococcus faecalis, 72 h
# Experimental: as §1, §2, §3, §4
row,Structure (SMILES),MIC [µM]
1,"CCCCCCCCCCCCC[P+](CC[P+](CCCCCCCCCCCCC)(C1CCCCC1)C1CCCCC1)(C1CCCCC1)C1CCCCC1 [^CyP2P-13,13]",32
2,"CCCCCCCCCCCCCC[P+](CC[P+](CCCCCCCCCCCCCC)(C1CCCCC1)C1CCCCC1)(C1CCCCC1)C1CCCCC1 [^CyP2P-14,14]",32
3,"CCCCCCCCCCCCCCCC[P+](CC[P+](CCCCCCCCCCCCCCCC)(C1CCCCC1)C1CCCCC1)(C1CCCCC1)C1CCCCC1 [^CyP2P-16,16]",125
4,"CCCCCCCC[P+](CC)(CC)CC[P+](CC)(CC)CCCCCCCC [^EtP2P-8,8]",> 250
5,"CCCCCCCCCC[P+](CC)(CC)CC[P+](CC)(CC)CCCCCCCCCC [^EtP2P-10,10]",16

# System: E. coli (MC4100)
# Assay: MIC against E. coli
# Type: cell-based
# Settings: Escherichia coli, 72 hours, 37 °C
# Experimental: as §1, §2, §3, §4
row,Structure (SMILES),MIC [µM]
1,"CCCCCCCCCCCCC[P+](CC[P+](CCCCCCCCCCCCC)(C1CCCCC1)C1CCCCC1)(C1CCCCC1)C1CCCCC1 [^CyP2P-13,13]",32
2,"CCCCCCCCCCCCCC[P+](CC[P+](CCCCCCCCCCCCCC)(C1CCCCC1)C1CCCCC1)(C1CCCCC1)C1CCCCC1 [^CyP2P-14,14]",63
3,"CCCCCCCCCCCCCCCC[P+](CC[P+](CCCCCCCCCCCCCCCC)(C1CCCCC1)C1CCCCC1)(C1CCCCC1)C1CCCCC1 [^CyP2P-16,16]",125
4,"CCCCCCCC[P+](CC)(CC)CC[P+](CC)(CC)CCCCCCCC [^EtP2P-8,8]",> 250
5,"CCCCCCCCCC[P+](CC)(CC)CC[P+](CC)(CC)CCCCCCCCCC [^EtP2P-10,10]",16

# System: A. baumannii
# Assay: MIC against A. baumannii
# Type: cell-based
# Settings: Acinetobacter baumannii, 72 h
# Experimental: as §1, §2, §3, §4
row,Structure (SMILES),MIC [µM]
1,"CCCCCCCCCCCCC[P+](CC[P+](CCCCCCCCCCCCC)(C1CCCCC1)C1CCCCC1)(C1CCCCC1)C1CCCCC1 [^CyP2P-13,13]",16
2,"CCCCCCCCCCCCCC[P+](CC[P+](CCCCCCCCCCCCCC)(C1CCCCC1)C1CCCCC1)(C1CCCCC1)C1CCCCC1 [^CyP2P-14,14]",63
3,"CCCCCCCCCCCCCCCC[P+](CC[P+](CCCCCCCCCCCCCCCC)(C1CCCCC1)C1CCCCC1)(C1CCCCC1)C1CCCCC1 [^CyP2P-16,16]",125
4,"CCCCCCCC[P+](CC)(CC)CC[P+](CC)(CC)CCCCCCCC [^EtP2P-8,8]",> 250
5,"CCCCCCCCCC[P+](CC)(CC)CC[P+](CC)(CC)CCCCCCCCCC [^EtP2P-10,10]",32

# System: P. aeruginosa (PAO1)
# Assay: MIC against P. aeruginosa
# Type: cell-based
# Settings: Pseudomonas aeruginosa; P. aeruginosa (PAO1); 72 hours, 37 °C; read-out: MIC
# Experimental: as §1, §2, §3, §4
row,Structure (SMILES),MIC [µM]
1,"CCCCCCCCCCCCC[P+](CC[P+](CCCCCCCCCCCCC)(C1CCCCC1)C1CCCCC1)(C1CCCCC1)C1CCCCC1 [^CyP2P-13,13]",63
2,"CCCCCCCCCCCCCC[P+](CC[P+](CCCCCCCCCCCCCC)(C1CCCCC1)C1CCCCC1)(C1CCCCC1)C1CCCCC1 [^CyP2P-14,14]",63
3,"CCCCCCCCCCCCCCCC[P+](CC[P+](CCCCCCCCCCCCCCCC)(C1CCCCC1)C1CCCCC1)(C1CCCCC1)C1CCCCC1 [^CyP2P-16,16]",63
4,"CCCCCCCC[P+](CC)(CC)CC[P+](CC)(CC)CCCCCCCC [^EtP2P-8,8]",> 250
5,"CCCCCCCCCC[P+](CC)(CC)CC[P+](CC)(CC)CCCCCCCCCC [^EtP2P-10,10]",32

# System: red blood cells
# Assay: Red Blood Cell (RBC) Lysis Assay (lysis20)
# Type: cell-based, sheep
# Settings: concentration inducing 20% RBC lysis; sheep blood, 1 hour, 37 °C
# Experimental: RBC lysis assays were performed on mechanically defibrinated sheep blood (Hemostat Labs: DSB030). An aliquot of 1.5 mL blood was placed into a microcentrifuge tube and centrifuged at 3,800 rpm for ten minutes. The supernatant was removed, and the cells were resuspended with 1 mL of phosphate-buffered saline (PBS). The suspension was centrifuged as described above, the supernatant was removed, and cells were resuspended 4 additional times in 1 mL PBS. The final cell suspension was diluted twentyfold with PBS. Compounds were serially diluted with PBS two-fold from stock solutions (1.0 mM) to yield 100 μL of twelve test concentrations on a flat-bottom 96-well plate (Corning, 351172), wherein the starting concentration of DMSO was 2.5%. To each of the wells, 100 μL of the twentyfold suspension dilution was then inoculated. TritonX (1% by volume) served as a positive control (100% lysis marker) and sterile PBS served as a negative control (0% lysis marker). Samples were then placed in an incubator at 37 °C and shaken at 200 rpm. After 1 hour, the samples were centrifuged at 3,800 rpm for ten minutes. The absorbance of the supernatant was measured with a UV spectrometer at a 540 nm wavelength. The concentration inducing 20% RBC lysis was then calculated for each compound based upon the absorbances of the TritonX and PBS controls. Aqueous DMSO controls were conducted as appropriate for each compound.
# The potential cytotoxicity of the compounds was also considered with the evaluation of hemolysis (lysis20) assays with 20% lysis of red blood cells serving as an indicator of potentially toxic compounds. Finally, the bioactivity of these compounds were benchmarked against a commercial benzalkonium chloride source (BAC; 70% benzyldimethyldodecylammonium chloride, and 30% benzyldimethyltetradecylammonium chloride) as well as some previously reported disinfectant compounds from the inventors' groups; included were bisQPC ^PhP6P-10,10 as well as ^PhP2P-10,10 and 12(2)12. A detailed description of the experimental procedures used to evaluate bioactivity and hemolysis assays are described above.
row,Structure (SMILES),Lysis20 [µM]
1,"CCCCCCCCCCCCC[P+](CC[P+](CCCCCCCCCCCCC)(C1CCCCC1)C1CCCCC1)(C1CCCCC1)C1CCCCC1 [^CyP2P-13,13]",8
2,"CCCCCCCCCCCCCC[P+](CC[P+](CCCCCCCCCCCCCC)(C1CCCCC1)C1CCCCC1)(C1CCCCC1)C1CCCCC1 [^CyP2P-14,14]",8
3,"CCCCCCCCCCCCCCCC[P+](CC[P+](CCCCCCCCCCCCCCCC)(C1CCCCC1)C1CCCCC1)(C1CCCCC1)C1CCCCC1 [^CyP2P-16,16]",32
4,"CCCCCCCC[P+](CC)(CC)CC[P+](CC)(CC)CCCCCCCC [^EtP2P-8,8]",250
5,"CCCCCCCCCC[P+](CC)(CC)CC[P+](CC)(CC)CCCCCCCCCC [^EtP2P-10,10]",63

# — patent US20260374792A1, “PHENYL-FREE BISCATIONIC QUATERNARY PHOSPHONIUM COMPOUNDS AS ANTIMICROBIAL AGENTS” (priority 2022, published 2026)
